In article PMC6910110, “Icaritin, an inhibitor of beta-site amyloid cleaving enzyme-1, inhibits secretion of amyloid precursor protein in APP-PS1-HEK293 cells by impeding the amyloidogenic pathway” (PeerJ, 2019):

Target: T1, beta-site amyloid cleaving enzyme (BACE)1 (Homo sapiens, UniProt P56817)
T1 construct: gene BACE1
Assay: BACE1 FRET assay kit (Panvera), Swedish-mutant peptide substrate
Format: biochemical

T1 sequence (P56817 46-457): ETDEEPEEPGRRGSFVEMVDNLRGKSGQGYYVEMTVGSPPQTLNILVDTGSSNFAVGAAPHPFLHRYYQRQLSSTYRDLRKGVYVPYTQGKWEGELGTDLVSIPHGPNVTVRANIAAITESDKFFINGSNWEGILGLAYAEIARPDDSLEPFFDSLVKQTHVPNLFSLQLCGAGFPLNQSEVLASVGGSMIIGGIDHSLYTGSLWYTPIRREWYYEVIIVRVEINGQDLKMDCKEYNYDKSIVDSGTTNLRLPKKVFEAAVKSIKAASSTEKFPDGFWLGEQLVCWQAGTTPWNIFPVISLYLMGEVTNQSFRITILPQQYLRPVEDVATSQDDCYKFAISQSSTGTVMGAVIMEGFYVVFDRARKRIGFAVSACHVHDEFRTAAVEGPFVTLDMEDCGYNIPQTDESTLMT

For `COc1ccc(-c2oc3c(CC=C(C)C)c(O)cc(O)c3c(=O)c2O)cc1` [ICT, Icaritin], the IC50 was 5.7 ± 1.09 µM.
